{
  "source": "patent US7745377B2",
  "about": "“Labeled peptides, proteins and antibodies and processes and intermediates useful for their preparation” (priority 2000, dated 2010)",
  "key": {"[1]": {"test": "Spectral data of merocyanine dyes (absorbance and fluorescence spectra)", "assay_type": "physicochemical", "design": "Absorption Maximum / Emission Maximum: unit not given here", "conditions": "n-butanol", "experimental": "Absorbance spectra were recorded on Hewlett-Packard HP8452 diode array spectrophotometer and fluorescence spectra were recorded on SPEX Fluorolog 2 spectrometer."}, "Rac1": {"target": "T1, Rac1 (Homo sapiens, UniProt P63000)", "T1 construct": "6His; made in house", "test": "Fluorescence of mero-CBD with activated Rac1", "assay_type": "binding", "conditions": "Rac1 pre-equilibrated with GTPγS", "experimental": "(§1) Analyses of the solvatochromic activation indicator—A solution of mero-CBD (300 nM) in assay buffer was mixed 1:1 (v/v) with solutions of cdc42 (concentration as indicated), pre-equilibrated with 10 mM GDP or GTPγS as described in Knaus, U. G., Heyworth, P. G., Kinsella, B. T., Curnutte, J. T., and Bokoch, G. M. (1992) J. Biol. Chem. 267, 23575-23582. Emission wavelength of 630 nm and excitation wavelength of 600 nm were used to acquire excitation and emission spectra, respectively. For nucleotide dependence, cdc42 (500 nM) was pre-incubated with varying concentrations of GTPγS (1 to 500 nM). Rac1 and RhoA GTPases were pre-equilibrated with GTP […]S in the same manner.\n(§2) Fluorescence increase as a measure of CBD-cdc42 interaction—The functionality and specificity of mero-CBD was characterized by measuring fluorescence in the presence of saturating amounts of cdc42-GDP or cdc42-GTPγS. […] Negligible increase (<5%) was also observed in the presence of activated Rac1. No effect on the mero-CBD fluorescence was observed when RhoA-GTPγS was present. Furthermore, even in the presence of excess of activated Rac1 and RhoA, GDP- and GTPγS-bound forms of cdc42 were easily distinguished by CBD-A4C fluorescence (data not shown)."}, "cdc42": {"target": "T2, cdc42 (Homo sapiens, UniProt P60953)", "T2 construct": "6His; made in house", "T2 sequence (P60953 whole entry, species assumed)": "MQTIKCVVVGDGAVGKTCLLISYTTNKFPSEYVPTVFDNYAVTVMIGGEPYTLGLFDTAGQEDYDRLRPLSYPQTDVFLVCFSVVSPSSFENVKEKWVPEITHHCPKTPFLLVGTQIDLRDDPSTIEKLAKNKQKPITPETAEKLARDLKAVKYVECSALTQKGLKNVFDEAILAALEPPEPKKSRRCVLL", "test": "Fluorescence of mero-CBD solvatochromic activation indicator with cdc42", "assay_type": "binding", "conditions": "for increase of fluorescence intensity on binding activated cdc42: cdc42-GTPγS, excitation and emission maxima", "experimental": "as §1, §2"}, "RhoA": {"target": "T3, RhoA (Homo sapiens, UniProt P61586)", "T3 construct": "6His; made in house", "T3 sequence (P61586 whole entry, species assumed)": "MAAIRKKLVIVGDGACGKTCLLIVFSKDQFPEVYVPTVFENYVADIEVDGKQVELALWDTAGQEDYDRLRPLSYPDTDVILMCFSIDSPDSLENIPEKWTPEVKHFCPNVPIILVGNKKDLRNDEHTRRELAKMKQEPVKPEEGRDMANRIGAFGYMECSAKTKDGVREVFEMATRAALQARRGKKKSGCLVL", "test": "Fluorescence of mero-CBD with RhoA-GTPγS", "assay_type": "binding", "conditions": "RhoA-GTPγS present", "experimental": "as §1, §2"}},
  "data": [
    {"molecule": "O=C1/C(=C/C=C/C=C2/Sc3ccccc3N2CCCS(=O)(=O)[O-])S(=O)(=O)c2ccccc21.[Na+]", "note": "[Compound 2]", "values": [
      {"measurement": "Absorption Maximum", "setting": "[1]", "value": 603},
      {"measurement": "Emission Maximum", "setting": "[1]", "value": 623},
      {"measurement": "Extinction coefficient (*10^−3)", "setting": "[1]", "value": 100},
      {"measurement": "Quantum Yield", "setting": "[1]", "value": 0.10}
    ]},
    {"molecule": "CC1(C)/C(=C/C=C/C=C2/C(=O)c3ccccc3S2(=O)=O)N(CCCS(=O)(=O)[O-])c2ccccc21.[Na+]", "note": "[Compound 3]", "values": [
      {"measurement": "Extinction coefficient (*10^−3)", "setting": "[1]", "value": 120},
      {"measurement": "Quantum Yield", "setting": "[1]", "value": 0.17}
    ]},
    {"molecule": "CC1(C)/C(=C/C=C/C=C2/C(=O)c3ccccc3C2=C(C#N)C#N)N(CCCS(=O)(=O)[O-])c2ccccc21.[Na+]", "note": "[Compound 4]", "values": [
      {"measurement": "Extinction coefficient (*10^−3)", "setting": "[1]", "value": 80},
      {"measurement": "Quantum Yield", "setting": "[1]", "value": 0.10}
    ]},
    {"molecule": "mero-CBD: cdc42 binding domain of WASP (amino acids 201 to 321) conjugated to the merocyanine dye shown in FIG. 11 (conjugate) DIQNPDITSSRYRGLPAPGPSPADKKRSGKKKISKADIGAPSGFKHVSHVGWDPQNGFDVNNLDPDLRSLCSRAGISEAQLTDAETSKLIYDFIEDQGGLEAVRQEMRRQEPLPPPPPPSHHHHHH", "values": [
      {"measurement": "fluorescence increase in presence of activated Rac1", "setting": "Rac1", "value": "< 5", "unit": "%"},
      {"measurement": "increase of fluorescence intensity on binding activated cdc42", "setting": "cdc42", "value": "Approximately 3.5 fold"},
      {"measurement": "increase of fluorescence intensity on binding activated cdc42", "setting": "cdc42; listed as CBD biosensor", "value": "up to 3.5 fold"},
      {"measurement": "fluorescence increase in presence of cdc42-GDP", "setting": "cdc42; saturating cdc42-GDP", "value": "not cdc42-GDP"},
      {"measurement": "effect on mero-CBD fluorescence of RhoA-GTPγS", "setting": "RhoA", "value": "No effect"}
    ]}
  ]
}
